Results: PubChem BioAssay AID1963444 (Molecular Pharmacology Branch, DTP, NCI, 2024)
Values joined by “and” are separate entries in the source; they are usually repeats but may differ in a detail not shown here. Equal entries are not always repeated.

System: HSSY-II complex spheroid growth, percent test/control
Experiment: Anticancer human tumor HSSY-II cell line growth inhibition [Asc];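 note: spheroids exposed to drug for 7 days before reading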
Conditions: for viability, T/C: stronger effect = lower value; active = viability on the fitted dose curve at most 10% of control; inactive = the rest
Procedure, shortened: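 Spheroid model: tumor line + HUVEC + hMSC. Single agents and combinations; top conc. at/near clinical Cmax (10 microM if undetermined), half-log dilutions. DMSO stocks at 800-fold test concentration.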

CCN1C(C(=O)NC23CCC(C(=O)O)(CC2)CC3)C(c2cccc(Cl)c2F)C2(C(=O)Nc3cc(Cl)ccc32)C12CCCCC2 (stereo not drawn)
133 nM and 135 nM: IC50 (curve of compound)
inactive: viability, T/C (compound 0.00949 µM) 99.7% and 101% | viability, T/C (compound 0.03 µM) 89.3% [middle of 15 runs] | viability, T/C (compound 0.0949 µM) 62.1% [middle of 15 runs] | viability, T/C (compound 0.3 µM) 27% [middle of 15 runs]
active: viability, T/C (compound 3 µM) 2.55% [middle of 15 runs]
8.58% [middle of 15 runs]: viability, T/C (compound 0.949 µM)
143 nM [middle of 12 runs]: IC50 (compound alone, run of 10/11/2022)

C#Cc1c(F)ccc2cc(O)cc(-c3ncc4c(N5CC6CCC(C5)N6)nc(OCC56CCCN5CC(F)C6)nc4c3F)c12 (stereo not drawn) + CCN1C(C(=O)NC23CCC(C(=O)O)(CC2)CC3)C(c2cccc(Cl)c2F)C2(C(=O)Nc3cc(Cl)ccc32)C12CCCCC2
active: viability, T/C (second compound 0.0949 µM, first compound 10 µM) 9.38% | viability, T/C (second compound 0.3 µM, first compound 10 µM) 0.94% | viability, T/C (second compound 0.949 µM, first compound 0.0316 µM) 7.03% | viability, T/C (second compound 0.949 µM, first compound 0.1 µM) 7.37% | viability, T/C (second compound 0.949 µM, first compound 0.316 µM) 6.79% | viability, T/C (second compound 0.949 µM, first compound 1 µM) 5.65% | viability, T/C (second compound 0.949 µM, first compound 3.16 µM) 5.67% | viability, T/C (second compound 0.949 µM, first compound 10 µM) 0.22% | viability, T/C (second compound 3 µM, first compound 0.0316 µM) 2.13% | viability, T/C (second compound 3 µM, first compound 0.1 µM) 2.33% | viability, T/C (second compound 3 µM, first compound 0.316 µM) 2.2% | viability, T/C (second compound 3 µM, first compound 1 µM) 1.74% | viability, T/C (second compound 3 µM, first compound 3.16 µM) 1.34% | viability, T/C (second compound 3 µM, first compound 10 µM) 0.27%
< 31.6 nM: IC50 (curve of first compound, second compound 0.3 µM) | IC50 (curve of first compound, second compound 0.949 µM) | IC50 (curve of first compound, second compound 3 µM)
inactive: viability, T/C (second compound 0.03 µM, first compound 0.0316 µM) 91.6% | viability, T/C (second compound 0.03 µM, first compound 0.1 µM) 96.6% | viability, T/C (second compound 0.03 µM, first compound 0.316 µM) 91.1% | viability, T/C (second compound 0.03 µM, first compound 1 µM) 90.7% | viability, T/C (second compound 0.03 µM, first compound 3.16 µM) 80.8% | viability, T/C (second compound 0.03 µM, first compound 10 µM) 24.9% | viability, T/C (second compound 0.0949 µM, first compound 0.0316 µM) 52.4% | viability, T/C (second compound 0.0949 µM, first compound 0.1 µM) 62.3% | viability, T/C (second compound 0.0949 µM, first compound 0.316 µM) 65.7% | viability, T/C (second compound 0.0949 µM, first compound 1 µM) 59% | viability, T/C (second compound 0.0949 µM, first compound 3.16 µM) 50.6% | viability, T/C (second compound 0.3 µM, first compound 0.0316 µM) 24.8% | viability, T/C (second compound 0.3 µM, first compound 0.1 µM) 27.5% | viability, T/C (second compound 0.3 µM, first compound 0.316 µM) 26% | viability, T/C (second compound 0.3 µM, first compound 1 µM) 20.6% | viability, T/C (second compound 0.3 µM, first compound 3.16 µM) 20.2%
3250 nM: IC50 (curve of first compound, second compound 0.0949 µM)
5960 nM: IC50 (curve of first compound, second compound 0.03 µM)
